Test results as given in ChEMBL document CHEMBL1782024, “Chisomicines A-C, limonoids from Chisocheton ceramicus” (J Nat Prod, 2011).
The source made the active and inactive calls. The rule behind the calls is not given here.

Columns and labels:
J774.1 = assay: Inhibition of LPS-induced nitric oxide production in mouse J774.1 cells after 24 hrs by griess assay; assay type: functional, cell-based; conditions: for IC50: J774.1, 24 h
[1] = Cytotoxicity against mouse J774.1 cells after 2 hrs by MTT assay; assay type: cell-based; conditions: j774.1, 2 h

Row | Structure (SMILES) | inhibition (J774.1) | IC50 (J774.1) | Activity [1]
1 | COC(=O)C[C@H]1C(C)(C)[C@@H]2O[C@@]34C[C@@H]2C(=O)[C@]1(C)[C@H]3CC[C@]1(C)C4CC(=O)O[C@@H]1c1ccoc1 (some centres not stated) | inactive |  | 
2 | C/C=C(\C)C(=O)O[C@@H]1C2[C@H]3O[C@]34[C@@H]3CC(=O)O[C@@H](c5ccoc5)[C@]3(C)CC[C@@H]4[C@@]3(C)[C@@H](CC(=O)OC)[C@@]1(C)C[C@@]23O (some centres not stated) | inactive |  | 
3 | C/C=C(\C)C(=O)O[C@@H]1C2C=C3[C@H](CC[C@@]4(C)[C@H](c5ccoc5)OC(=O)C[C@@]34O)[C@@]3(C)[C@@H](CC(=O)OC)[C@@]1(C)CO[C@@]23O | inactive |  | 
4 | COC(=O)C[C@H]1C(C)(C)[C@H](O)[C@@H]2CC3=C4CC(=O)O[C@@H](c5ccoc5)[C@]4(C)CC[C@@H]3[C@@]1(C)C2=O | inactive |  | 
5 | CNC(=N)NCCC[C@H](N)C(=O)O [TILARGININE] |  | 13.8 µg/mL | 
6 | C/C=C(\C)C(=O)O[C@@H]1/C=C\C2=C3CC(=O)O[C@@H](c4ccoc4)[C@]3(C)CC[C@@H]2[C@@]2(C)C(=O)C[C@]1(C)[C@@H]2CC(=O)OC [CHISOMICINE A] |  | 20.2 µM | Toxic
